Measurements published in patent US10030047B2 (Hoffmann-La Roche Inc., priority 2015, dated 2018).
Values after ≈ are worked out from the molar mass of the structure shown.

System: A. baumannii strain ATCC19606
Experiment: Minimum inhibitory concentration (MIC) determination, microbroth dilution (CLSI)
Assay type: cell-based
Settings: Acinetobacter baumannii; A. baumannii ATCC19606; CAMHB; read after 20 hours; >=80% growth inhibition; read-out: ATCC19606 MIC
Method in brief: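 After 20 h at 35±2 °C, MIC taken visually and by OD 600 nm as the lowest concentration giving ≥80% growth inhibition. Bacteria (~5×10^5 CFU/ml) were tested per CLSI microbroth dilution against twofold serial compound dilutions in cation-adjusted Mueller Hinton broth.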

MIC [mg/L]	SMILES
64 (≈ 84.7 µM)	CN1C(=O)[C@H](CCCCN)NC(=O)[C@H](CCCN)NCc2ccccc2Sc2ccnc(N3CCOCC3)c2CNC(=O)[C@@H]1Cc1c[nH]c2ccccc12 [Example 193]
32 (≈ 44.3 µM)	CN1C(=O)[C@H](CCCCN)NC(=O)[C@H](CCCN)NCc2cc(F)ccc2Sc2c(Cl)cccc2CNC(=O)[C@@H]1Cc1c[nH]c2ccccc12 [Example 64, (12S,15S,18S)-15-(4-Amino-butyl)-18-(3-amino-propyl)-4-chloro-23-fluoro-12-(1H-indol-3-ylmethyl)-13-methyl-2-thia-10,13,16,19-tetraaza-tricyclo[19.4.0.0*3,8*]pentacosa-1(25),3,5,7,21,23-hexaene-11,14,17-trione]
0.12 (≈ 0.153 µM)	CN1C(=O)[C@H](CCCCN)NC(=O)[C@H](CCCN)NCc2cccnc2Sc2c(Cl)ccc(-c3ccncc3)c2CNC(=O)[C@@H]1Cc1c[nH]c2ccccc12 [Example 190, (11S,14S,17S)-14-(4-Amino-butyl)-11-(3-amino-propyl)-25-chloro-17-(1H-indol-3-ylmethyl)-16-methyl-22-pyridin-4-yl-2-thia-4,10,13,16,19-pentaaza-tricyclo[19.4.0.0*3,8*]pentacosa-1(21),3,5,7,22,24-hexaene-12,15,18-trione]
4 (≈ 5.12 µM)	CN1C(=O)[C@H](CCCCN)NC(=O)[C@H](CCCN)NCc2ccccc2Sc2c(-c3ccccc3)ncc(Cl)c2CNC(=O)[C@@H]1Cc1c[nH]c2ccccc12 [Example 189]
0.5 (≈ 0.602 µM)	Cc1[nH]c2ccccc2c1C[C@H]1C(=O)NCc2cc(-c3ccnc(Cl)c3)cc(Cl)c2Sc2ncccc2CN[C@@H](CCCN)C(=O)N[C@@H](CCCCN)C(=O)N1C [Example 182, (11S,14S,17S)-14-(4-Amino-butyl)-11-(3-amino-propyl)-25-chloro-23-(2-chloro-pyridin-4-yl)-16-methyl-17-(2-methyl-1H-indol-3-ylmethyl)-2-thia-4,10,13,16,19-pentaaza-tricyclo[19.4.0.0*3,8*]pentacosa-1(25),3(8),4,6,21,23-hexaene-12,15,18-trione]
64 (≈ 89.9 µM)	CC(C)c1ccc2c(c1)CNC(=O)[C@H](Cc1c[nH]c3ccccc13)N(C)C(=O)[C@H](CCCCN)NC(=O)[C@H](CCCN)NCc1ccccc1S2 [Example 72, (12S,15S,18S)-15-(4-Amino-butyl)-18-(3-amino-propyl)-12-(1H-indol-3-ylmethyl)-6-isopropyl-13-methyl-2-thia-10,13,16,19-tetraaza-tricyclo[19.4.0.0*3,8*]pentacosa-1(25),3,5,7,21,23-hexaene-11,14,17-trione]
0.12 (≈ 0.155 µM)	CN1C(=O)[C@H](CCCCN)NC(=O)[C@H](CCCN)NCc2nccnc2Sc2c(Cl)ccc(C(F)(F)F)c2CNC(=O)[C@@H]1Cc1c[nH]c2ccccc12 [Example 98, (11S,14S,17S)-14-(4-Amino-butyl)-11-(3-amino-propyl)-25-chloro-17-(1H-indol-3-ylmethyl)-16-methyl-22-trifluoromethyl-2-thia-4,7,10,13,16,19-hexaaza-tricyclo[19.4.0.0*3,8*]pentacosa-1(21),3,5,7,22,24-hexaene-12,15,18-trione]
2 (≈ 2.84 µM)	CN1C(=O)[C@H](CCCCN)NC(=O)[C@H](CCCN)NCc2cccnc2Sc2c(Cl)cccc2CNC(=O)[C@@H]1Cc1c[nH]c2ccccc12 [Example 28, (11S,14S,17S)-14-(4-Amino-butyl)-11-(3-amino-propyl)-25-chloro-17-(1H-indol-3-ylmethyl)-16-methyl-2-thia-4,10,13,16,19-pentaaza-tricyclo[19.4.0.0*3,8*]pentacosa-1(25),3,5,7,21,23-hexaene-12,15,18-trione]
0.5 (≈ 0.696 µM)	CCN1C(=O)[C@H](CCCCN)NC(=O)[C@H](CCCN)NCc2ccccc2Sc2c(Cl)cccc2CNC(=O)[C@@H]1Cc1c[nH]c2ccccc12 [Example 45, (12S,15S,18S)-15-(4-Amino-butyl)-18-(3-amino-propyl)-4-chloro-13-ethyl-12-(1H-indol-3-ylmethyl)-2-thia-10,13,16,19-tetraaza-tricyclo[19.4.0.0*3,8*]pentacosa-1(21),3,5,7,22,24-hexaene-11,14,17-trione]
0.25 (≈ 0.332 µM)	CN1C(=O)[C@H](CCCCN)NC(=O)[C@H](CCC(N)=O)NCc2cccnc2Sc2c(Cl)cc(Cl)cc2CNC(=O)[C@@H]1Cc1c[nH]c2ccccc12 [Example 103, 3-[(11S,14S,17S)-14-(4-Amino-butyl)-23,25-dichloro-17-(1H-indol-3-ylmethyl)-16-methyl-12,15,18-trioxo-2-thia-4,10,13,16,19-pentaaza-tricyclo[19.4.0.0*3,8*]pentacosa-1(25),3,5,7,21,23-hexaen-11-yl]-propionamide]
0.5 (≈ 0.582 µM)	CN1C(=O)[C@H](CCCCN)NC(=O)[C@H](CCCN)NCc2cccnc2Sc2c(Cl)cc(-c3ccc(S(C)(=O)=O)cc3)cc2CNC(=O)[C@@H]1Cc1c[nH]c2ccccc12 [Example 172, (11S,14S,17S)-14-(4-Amino-butyl)-11-(3-amino-propyl)-25-chloro-17-(1H-indol-3-ylmethyl)-23-(4-methanesulfonyl-phenyl)-16-methyl-2-thia-4,10,13,16,19-pentaaza-tricyclo[19.4.0.0*3,8*]pentacosa-1(25),3(8),4,6,21,23-hexaene-12,15,18-trione]
2 (≈ 2.64 µM)	CN1C(=O)[C@H](CCCCN)NC(=O)[C@H](CCCN)NCc2cc(F)ccc2Sc2c(Cl)cc(Cl)cc2CNC(=O)[C@@H]1Cc1c[nH]c2ccccc12 [Example 27, (12S,15S,18S)-15-(4-Amino-butyl)-18-(3-amino-propyl)-4,6-dichloro-23-fluoro-12-(1H-indol-3-ylmethyl)-13-methyl-2-thia-10,13,16,19-tetraaza-tricyclo[19.4.0.0*3,8*]pentacosa-1(25),3,5,7,21,23-hexaene-11,14,17-trione]
0.5 (≈ 0.645 µM)	CN1C(=O)[C@H](COCCN)NC(=O)[C@H](CCCN)NCc2cccnc2Sc2c(Cl)ccc(C(F)(F)F)c2CNC(=O)[C@@H]1Cc1c[nH]c2ccccc12 [Example 120, (11S,14S,17S)-14-(2-Amino-ethoxymethyl)-11-(3-amino-propyl)-25-chloro-17-(1H-indol-3-ylmethyl)-16-methyl-22-trifluoromethyl-2-thia-4,10,13,16,19-pentaaza-tricyclo[19.4.0.0*3,8*]pentacosa-1(25),3,5,7,21,23-hexaene-12,15,18-trione]
4 (≈ 5.36 µM)	CN1C(=O)[C@H](CCCCN)NC(=O)[C@H](CCCN)NCc2ccccc2Sc2ccc(-c3ccccc3)cc2CNC(=O)[C@@H]1Cc1c[nH]c2ccccc12 [Example 69, (12S,15S,18S)-15-(4-Amino-butyl)-18-(3-amino-propyl)-12-(1H-indol-3-ylmethyl)-13-methyl-6-phenyl-2-thia-10,13,16,19-tetraaza-tricyclo[19.4.0.0*3,8*]pentacosa-1(25),3,5,7,21,23-hexaene-11,14,17-trione]
0.5 (≈ 0.572 µM)	Cc1[nH]c2ccccc2c1C[C@H]1C(=O)NCc2cc(-c3ccc(S(N)(=O)=O)cc3)cc(Cl)c2Sc2ncccc2CN[C@@H](CCCN)C(=O)N[C@@H](CCCCN)C(=O)N1C [Example 235, 4-[(11S,14S,17S)-14-(4-Amino-butyl)-11-(3-amino-propyl)-25-chloro-16-methyl-17-(2-methyl-1H-indol-3-ylmethyl)-12,15,18-trioxo-2-thia-4,10,13,16,19-pentaaza-tricyclo[19.4.0.0*3,8*]pentacosa-1(25),3(8),4,6,21,23-hexaen-23-yl]-benzenesulfonamide]
